These are literature values, as cited in patent US20240398972A1, “METHODS FOR PRODUCING ANTIBODY-LINKER CONJUGATES” (ARARIS BIOTECH AG, priority 2021, published 2024).

Usually Kd stands for the concentration at which binding is half-saturated.

In one series the test system is various tumor cell lines. The following applies: cytostatic effects.
Series [1] addresses DNA-dependent RNA polymerase II (Homo sapiens, UniProt P24928). The following applies: complex amanitin / RNA-polymerase II, not covalently bound.

Consider `CC[C@H](C)[C@H](NC(=O)[C@H]1CCCCN1C)C(=O)N(COC(=O)CC(C)C)[C@H](C[C@@H](OC(C)=O)c1nc(C(=O)N[C@@H](Cc2ccc(O)cc2)C[C@H](C)C(=O)O)cs1)C(C)C` [Tubulysin A], for which the IC50 result in the series with various tumor cell lines was “picomolar range”.
For the compound amanitin, the equilibrium dissociation constant (Kd) in series [1] was 3 nM.
